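Where inhibition never reached the appropriate level, the endpoint shown equals the highest concentration tested. Otherwise, values were interpolated linearly from a five-concentration, 48-hour dose response in 96-well plates. GI50: concentration for 50% inhibition of growth.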 Calls of active or inactive are those of the source. No stated cut-off is given here; in the data, active = GI50 up to about 1.1 µM and inactive = higher.
Columns and labels:
Assay in all cases: NCI-60 cell line screen, 48 h
[1] = test system: EKVX
[2] = test system: HCT-15
[3] = test system: K562
[4] = test system: SF-295
[5] = test system: T47D
[6] = test system: BT-549
[7] = test system: RPMI-8226
[8] = test system: HOP-92
[9] = test system: MDA-N
[10] = test system: Malme-3M
[11] = test system: A498
[12] = test system: OVCAR-8
[13] = test system: OVCAR-3
[14] = test system: OVCAR-4
[15] = test system: TK-10
[16] = test system: ACHN
[17] = test system: SR
[18] = test system: SF-268
[19] = test system: KM12
[20] = test system: LOX IMVI
[21] = test system: Hs-578T
[22] = test system: COLO 205
[23] = test system: HCT-116
[24] = test system: MDA-MB-435
[25] = test system: SNB-19
[26] = test system: NCI-H460
[27] = test system: SK-OV-3
[28] = test system: HT-29
[29] = test system: U-251
[30] = test system: HL-60
[31] = test system: SK-MEL-2
[32] = test system: SF-539
[33] = test system: OVCAR-5
[34] = test system: SK-MEL-5
[35] = test system: NCI-H226
[36] = test system: UACC-257
[37] = test system: IGROV-1
[38] = test system: MCF7
[39] = test system: SK-MEL-28
[40] = test system: 786-0
[41] = test system: HOP-62
[42] = test system: SN12C
[43] = test system: PC-3
[44] = test system: NCI/ADR-RES
[45] = test system: CAKI-1
[46] = test system: DU-145
[47] = test system: SW-620
[48] = test system: MDA-MB-231
[49] = test system: UO-31
[50] = test system: SNB-75
[51] = test system: NCI-H23
[52] = test system: RXF 393
[53] = test system: UACC-62
[54] = test system: A549
[55] = test system: M14
[56] = test system: NCI-H522
[57] = test system: MOLT-4
[58] = test system: HCC 2998
[59] = test system: CCRF-CEM

O=C(O)CSCCc1ccccc1
GI50 [1]: > 100 µM (inactive) | GI50 [2]: > 100 µM | GI50 [3]: > 100 µM (inactive) | GI50 [4]: > 100 µM (inactive) | GI50 [5]: > 100 µM (inactive) | GI50 [6]: > 100 µM (inactive) | GI50 [7]: > 100 µM (inactive) | GI50 [8]: > 100 µM (inactive) | GI50 [9]: > 100 µM (inactive) | GI50 [10]: > 100 µM (inactive) | GI50 [11]: > 100 µM (inactive) | GI50 [12]: > 100 µM (inactive) | GI50 [13]: > 100 µM (inactive) | GI50 [14]: > 100 µM (inactive) | GI50 [15]: > 100 µM (inactive) | GI50 [16]: > 100 µM (inactive) | GI50 [17]: > 100 µM (inactive) | GI50 [18]: > 100 µM (inactive) | GI50 [19]: > 100 µM (inactive) | GI50 [20]: > 100 µM (inactive) | GI50 [21]: > 100 µM (inactive) | GI50 [22]: > 100 µM (inactive) | GI50 [23]: > 100 µM (inactive) | GI50 [24]: > 100 µM (inactive) | GI50 [25]: > 100 µM (inactive) | GI50 [26]: > 100 µM (inactive) | GI50 [27]: > 100 µM (inactive) | GI50 [28]: > 100 µM (inactive) | GI50 [29]: > 100 µM (inactive) | GI50 [30]: 0.156 µM (active) | GI50 [31]: > 100 µM (inactive) | GI50 [32]: > 100 µM (inactive) | GI50 [33]: > 100 µM (inactive) | GI50 [34]: > 100 µM (inactive) | GI50 [35]: > 100 µM (inactive) | GI50 [36]: > 100 µM (inactive) | GI50 [37]: > 100 µM (inactive) | GI50 [38]: > 100 µM (inactive) | GI50 [39]: > 100 µM (inactive) | GI50 [40]: > 100 µM (inactive) | GI50 [41]: > 100 µM (inactive) | GI50 [42]: > 100 µM (inactive) | GI50 [43]: > 100 µM (inactive) | GI50 [44]: > 100 µM (inactive) | GI50 [45]: > 100 µM (inactive) | GI50 [46]: > 100 µM (inactive) | GI50 [47]: > 100 µM (inactive) | GI50 [48]: > 100 µM (inactive) | GI50 [49]: > 100 µM (inactive) | GI50 [50]: > 100 µM (inactive) | GI50 [51]: > 100 µM (inactive) | GI50 [52]: > 100 µM (inactive) | GI50 [53]: > 100 µM (inactive) | GI50 [54]: > 100 µM (inactive) | GI50 [55]: > 100 µM (inactive) | GI50 [56]: > 100 µM (inactive) | GI50 [57]: > 100 µM (inactive)

Cc1nn(-c2ccccc2)c2c1N=C(C(=O)O)CC(c1ccccc1)=N2
GI50 [2]: > 10 µM | GI50 [3]: > 10 µM (inactive) | GI50 [4]: > 10 µM (inactive) | GI50 [5]: > 10 µM (inactive) | GI50 [58]: > 10 µM (inactive) | GI50 [6]: > 10 µM (inactive) | GI50 [7]: > 10 µM (inactive) | GI50 [8]: > 10 µM (inactive) | GI50 [9]: > 10 µM (inactive) | GI50 [10]: > 10 µM (inactive) | GI50 [12]: > 10 µM (inactive) | GI50 [13]: > 10 µM (inactive) | GI50 [14]: > 10 µM (inactive) | GI50 [15]: > 10 µM (inactive) | GI50 [16]: > 10 µM (inactive) | GI50 [17]: > 10 µM (inactive) | GI50 [18]: > 10 µM (inactive) | GI50 [19]: > 10 µM (inactive) | GI50 [20]: > 10 µM (inactive) | GI50 [21]: > 10 µM (inactive) | GI50 [22]: > 10 µM (inactive) | GI50 [23]: > 10 µM (inactive) | GI50 [24]: > 10 µM (inactive) | GI50 [25]: > 10 µM (inactive) | GI50 [27]: > 10 µM (inactive) | GI50 [28]: > 10 µM (inactive) | GI50 [29]: > 10 µM (inactive) | GI50 [30]: > 10 µM (inactive) | GI50 [32]: > 10 µM (inactive) | GI50 [34]: > 10 µM (inactive) | GI50 [36]: > 10 µM (inactive) | GI50 [37]: > 10 µM (inactive) | GI50 [38]: > 10 µM (inactive) | GI50 [39]: > 10 µM (inactive) | GI50 [40]: > 10 µM (inactive) | GI50 [41]: > 10 µM (inactive) | GI50 [42]: > 10 µM (inactive) | GI50 [43]: > 10 µM (inactive) | GI50 [44]: > 10 µM (inactive) | GI50 [45]: > 10 µM (inactive) | GI50 [46]: > 10 µM (inactive) | GI50 [47]: > 10 µM (inactive) | GI50 [48]: > 10 µM (inactive) | GI50 [50]: > 10 µM (inactive) | GI50 [51]: > 10 µM (inactive) | GI50 [53]: > 10 µM (inactive) | GI50 [54]: > 10 µM (inactive) | GI50 [55]: > 10 µM (inactive) | GI50 [56]: > 10 µM (inactive) | GI50 [57]: > 10 µM (inactive)

O=c1oc2ccccc2c(Nc2ccc3c(c2)Sc2ccccc2O3)c1[N+](=O)[O-]
GI50 [1]: 22.9 µM (inactive) | GI50 [2]: 25.1 µM | GI50 [3]: 20 µM (inactive) | GI50 [4]: 22.1 µM (inactive) | GI50 [5]: 20.8 µM (inactive) | GI50 [58]: 20.4 µM (inactive) | GI50 [6]: 27.8 µM (inactive) | GI50 [7]: 13.7 µM (inactive) | GI50 [8]: 20.7 µM (inactive) | GI50 [9]: 30.9 µM (inactive) | GI50 [10]: 21.2 µM (inactive) | GI50 [12]: 30.8 µM (inactive) | GI50 [13]: 17.1 µM (inactive) | GI50 [14]: 25 µM (inactive) | GI50 [15]: 23.6 µM (inactive) | GI50 [16]: 19.6 µM (inactive) | GI50 [17]: 24.8 µM (inactive) | GI50 [18]: 33.6 µM (inactive) | GI50 [59]: 31.7 µM (inactive) | GI50 [19]: 24.7 µM (inactive) | GI50 [20]: 33.3 µM (inactive) | GI50 [21]: 30.9 µM (inactive) | GI50 [22]: 16.3 µM (inactive) | GI50 [23]: 25.5 µM (inactive) | GI50 [24]: 29.2 µM (inactive) | GI50 [25]: 27 µM (inactive) | GI50 [26]: 17.3 µM (inactive) | GI50 [27]: 35.2 µM (inactive) | GI50 [28]: 23.9 µM (inactive) | GI50 [29]: 18.5 µM (inactive) | GI50 [30]: 29.7 µM (inactive) | GI50 [31]: 20.5 µM (inactive) | GI50 [32]: 26.3 µM (inactive) | GI50 [33]: 34.6 µM (inactive) | GI50 [34]: 15.8 µM (inactive) | GI50 [35]: 23.2 µM (inactive) | GI50 [36]: 18.5 µM (inactive) | GI50 [37]: 26.2 µM (inactive) | GI50 [38]: 18.7 µM (inactive) | GI50 [39]: 16.2 µM (inactive) | GI50 [40]: 22.7 µM (inactive) | GI50 [41]: 29.4 µM (inactive) | GI50 [42]: 28.9 µM (inactive) | GI50 [43]: 19.4 µM (inactive) | GI50 [44]: 26.9 µM (inactive) | GI50 [45]: 26.1 µM (inactive) | GI50 [46]: 27.8 µM (inactive) | GI50 [48]: 21 µM (inactive) | GI50 [49]: 25.6 µM (inactive) | GI50 [50]: 23.2 µM (inactive) | GI50 [51]: 25.9 µM (inactive) | GI50 [52]: 23.4 µM (inactive) | GI50 [53]: 14.1 µM (inactive) | GI50 [54]: 21.1 µM (inactive) | GI50 [55]: 27.4 µM (inactive) | GI50 [56]: 16.4 µM (inactive)

— ChEMBL document CHEMBL1201862, “PubChem BioAssay data set” (2004)
